Test [1] deals with calpain. Conditions: cited from earlier work; for Ki: read-out: Ki for calpain; for IC50: read-out: IC50, calpain inhibitor.
Another test deals with cathepsin L. Conditions: read-out: Ki for cathepsin L; calpastatin peptide; ref [32]−[35]; cited from earlier work.
The subject of test [2] is neuronal and hippocampal culture models of injury. The following applies: ref [16]−[19]; cited from earlier work.
The target in another test is calpain-1. Conditions: read-out: Ki for calpain-1; calpain inhibitor II; ref [13],[24]; cited from earlier work.
Test [3] has as its system neurofilament and spectrin proteolysis in the cortex. Conditions: continuous intra-arterial infusion after TBI; ref [13],[24]; cited from earlier work.
In a further test the target is cathepsin B. The following applies: read-out: Ki for cathepsin B; calpain inhibitor II; ref [13],[24]; cited from earlier work.
The next test has as its target calpain-2. Conditions: read-out: Ki for calpain-2; calpain inhibitor II; ref [13],[24]; cited from earlier work.
A further test concerns TBI. The following applies: large multicenter clinical trials in TBI; ref [4],[5]; cited from earlier work.
For test [4], the target named is T1, recombinant human calpain-1 (Homo sapiens, UniProt P07384).
T1 sequence (P07384 1-714): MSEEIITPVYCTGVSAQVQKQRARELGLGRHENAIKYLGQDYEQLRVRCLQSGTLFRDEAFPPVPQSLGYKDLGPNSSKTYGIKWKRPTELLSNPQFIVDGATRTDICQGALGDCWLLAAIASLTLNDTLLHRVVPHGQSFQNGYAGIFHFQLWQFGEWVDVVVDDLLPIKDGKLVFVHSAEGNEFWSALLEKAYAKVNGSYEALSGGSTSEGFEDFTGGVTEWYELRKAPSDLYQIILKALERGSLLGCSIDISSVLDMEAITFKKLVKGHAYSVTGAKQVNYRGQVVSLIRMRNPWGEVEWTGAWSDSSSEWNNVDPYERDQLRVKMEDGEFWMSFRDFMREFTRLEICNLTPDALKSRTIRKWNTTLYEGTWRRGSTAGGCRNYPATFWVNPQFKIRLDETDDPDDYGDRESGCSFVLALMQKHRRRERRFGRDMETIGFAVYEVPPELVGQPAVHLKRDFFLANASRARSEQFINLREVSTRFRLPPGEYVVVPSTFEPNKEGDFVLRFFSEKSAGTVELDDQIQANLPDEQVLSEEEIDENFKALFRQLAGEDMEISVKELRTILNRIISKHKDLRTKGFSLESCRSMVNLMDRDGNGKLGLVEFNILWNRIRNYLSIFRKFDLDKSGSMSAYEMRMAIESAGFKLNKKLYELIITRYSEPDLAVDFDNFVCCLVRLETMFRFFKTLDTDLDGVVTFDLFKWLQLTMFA
T1 sequence (P04632 1-268 partner): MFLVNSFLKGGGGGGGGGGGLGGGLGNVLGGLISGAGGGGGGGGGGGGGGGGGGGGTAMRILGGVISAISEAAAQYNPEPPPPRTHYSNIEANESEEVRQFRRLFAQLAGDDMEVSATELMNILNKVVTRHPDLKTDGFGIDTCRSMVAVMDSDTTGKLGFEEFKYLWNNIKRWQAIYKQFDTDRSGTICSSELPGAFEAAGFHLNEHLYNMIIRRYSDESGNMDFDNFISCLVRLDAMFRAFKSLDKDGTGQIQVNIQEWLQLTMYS
Description: Inhibition of calpain-1 cleavage of CS FRET peptide by titrated CAST/ScrCAST. Format: biochemical. The following applies: up to 1 μM; 8 μM CS substrate; 26.6 nM recombinant human calpain-1; 37C.

The subject of test [5] is calpain activity in the hippocampus. Description: Activated CS in hippocampal regions. Conditions: dentate gyrus, CA1, CA2, CA3; 1 h after injury; n = 10 mice, unpaired t-test.
Test [6] has as its system calpain. Description: Activated CS signal in injured cortex and hippocampus, CCI mouse model. Conditions: mouse model of TBI, systemic administration.
Test [7] concerns the target T1, recombinant human calpain-1. Description: CS activation of PEG conjugates by recombinant human calpain-1. The class given is biochemical. Conditions: 37C, 1 h.

Where two headings read alike, the source gives them in different places. Square brackets hold non-standard residues; d marks the D form. Peptide text beside a SMILES is read from it. * marks the point of attachment. 5FAM = O=C1OC2(c3ccc(O)cc3Oc3cc(O)ccc32)c2ccc(C(=O)*)cc21; Nle = CCCC[C@H](N)C(=O)O; Cbz = O=C(OCc1ccccc1)*

As for `CC[C@H](C)[C@H](NC(=O)[C@H](Cc1ccc(O)cc1)NC(=O)[C@@H](NC(=O)[C@H](CO)NC(=O)[C@H](CO)NC(=O)[C@H](CCSC)NC(=O)[C@@H]1CCCN1C(=O)[C@@H](N)CC(=O)O)[C@@H](C)O)C(=O)N[C@@H](CCC(=O)O)C(=O)N[C@@H](CCC(=O)O)C(=O)N[C@@H](CC(C)C)C(=O)NCC(=O)N[C@@H](CCCCN)C(=O)N[C@@H](CCCNC(=N)N)C(=O)N[C@@H](CCC(=O)O)C(=O)N[C@H](C(=O)N[C@H](C(=O)N[C@H](C(=O)N1CCC[C@H]1C(=O)N1CCC[C@H]1C(=O)N[C@@H](CCCCN)C(=O)N[C@@H](Cc1ccc(O)cc1)C(=O)N[C@@H](CCCNC(=N)N)C(=O)N[C@@H](CCC(=O)O)C(=O)N[C@@H](CC(C)C)C(=O)N[C@@H](CC(C)C)C(=O)N[C@@H](C)C(=O)N[C@@H](CCCCNC(=O)c1ccc2c(c1)C(=O)OC21c2ccc(O)cc2Oc2cc(O)ccc21)C(=O)N[C@@H](CS)C(N)=O)[C@@H](C)CC)[C@@H](C)O)C(C)C` [CAST] (H-DPMSSTYIEELGKREVTIPPKYRELLAK(5FAM)C-NH2; N-terminus assumed), the Ki on calpain [1] (calpastatin peptide, ref [32]−[35]) is 42.6 nM; at cathepsin L, 6000 nM.

As to `CC(C)[C@H](NC(=O)OCc1ccccc1)C(=O)N[C@H](C=O)Cc1ccccc1` [MDL-28170] (Cbz-Val-Phe-aldehyde), in the test on calpain [1] (MDL-28170, ref [64]), the IC50 was 11 nM. In addition, the Ki at calpain [1] (MDL-28170, ref [20],[28]) is 10 nM.

As to `CSCC[C@@H](C=O)NC(=O)[C@H](CC(C)C)NC(=O)[C@H](CC(C)C)NC(C)=O` [calpain inhibitor II] (Ac-Leu-Leu-Met-aldehyde), the “cell apoptosis, actin and spectrin proteolysis, DNA fragmentation” value in test [2] is “reduce cell apoptosis, suppress actin and spectrin proteolysis, and inhibit DNA fragmentation”. Besides, the Ki is 120 nM on calpain-1, 100 nM on cathepsin B and 230 nM on calpain-2. Moreover, the “neurofilament and spectrin proteolysis in the cortex” value in test [3] was “required continuous intra-arterial infusion after TBI to significantly reduce neurofilament and spectrin proteolysis in the cortex”.

As to `CCCC[C@@H](C=O)NC(=O)[C@H](CC(C)C)NC(=O)[C@H](CC(C)C)NC(C)=O` [calpain inhibitor I] (Ac-Leu-Leu-[Nle]-aldehyde), in the test with calpain [1] (calpain inhibitor I, ref [63]), the IC50 was 90 nM.

With `CC(=O)[C@H]1CC[C@H]2[C@@H]3CCC4=CC(=O)CC[C@]4(C)[C@H]3CC[C@]12C` [progesterone], the “efficacy as acute stage neuroprotective treatment” value in the test on TBI is reported as “failed to establish efficacy as an acute stage neuroprotective treatment”.

As for “APRLEIVPTMYIYKLSPTGSEKLEDER-K(5FAM)-C-NH2 [ScrCAST]”, the “detectable inhibitory activity on calpain-1” value in test [4] is “does not have any detectable inhibitory activity up to 1 μM”.

For “CAST–PEG–CS: 40 kDa 8-arm PEG scaffold modified with CAST and CS peptide (activity-based nanotheranostic) (chain 1 DPMSSTYIEELGKREVTIPPKYRELLAKC; chain 2 QEVYGAMPKGC; not fully specified; 5FAM on the added lysine; C-terminal amide; cysteine joined to the 8-arm PEG by maleimide chemistry | QSY21 on the N-terminus; Cy5 on the lysine; PEG2 spacer between K(Cy5) and GC; c)”, the “sensor activation in hippocampal regions” value in [5] is reported as “inhibits activation of CS in the injured hippocampus”. Moreover, the “inhibition of calpain activity, cortical vs hippocampal neurons” value in the test with calpain [6] was “greater ABNT-mediated inhibition of calpain activity in cortical neurons compared to that in hippocampal neurons”. The “inhibition of calpain-1 at increased enzyme concentration” value in test [7] (calpain-1 up to 6U (∼380 nM), 8 μM CS) was “able to inhibit activity and cleavage of the CS substrate compared to ScrCAST–PEG–CS”. Moreover, the “CS activation by calpain-1” value in [7] (conjugates matched to 8 μM CS, 26.6 nM recombinant human calpain-1, Cy5 fluorescence) was “no measured activation of CS peptide”.

The values are drawn from PMC11411711 (ACS Nano, 2024).
